The target in this test is T1, AT1 N295A receptor (Rattus norvegicus, UniProt P25095, N295A).
T1 construct: expressed in transfected cells; host or cells: COS7
T1 sequence (P25095 1-359 N295A): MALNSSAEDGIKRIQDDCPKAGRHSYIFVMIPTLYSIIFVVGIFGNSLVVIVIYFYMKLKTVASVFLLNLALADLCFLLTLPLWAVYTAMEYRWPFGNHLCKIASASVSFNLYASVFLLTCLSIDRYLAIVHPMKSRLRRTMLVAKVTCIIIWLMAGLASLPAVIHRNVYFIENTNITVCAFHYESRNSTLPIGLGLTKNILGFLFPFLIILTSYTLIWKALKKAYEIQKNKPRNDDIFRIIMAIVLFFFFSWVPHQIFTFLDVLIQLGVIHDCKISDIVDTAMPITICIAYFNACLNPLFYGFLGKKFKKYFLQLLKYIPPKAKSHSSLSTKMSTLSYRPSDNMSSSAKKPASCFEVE
Nature of the test: Competition binding study, 125I-[Sar1,Ile8]Ang II, AT1 N295A receptor. The settings on record: competition with 125I-[Sar1,Ile8]Ang II, n = 3, mean ± standard error, read-out: Binding affinity (Kd). The text has this:
We mutated four amino acids in transmembrane (TM) III, VI, and VII in the AT1 receptor (L112A, Q257A, Y292A, and N295A receptors). We determined the mutation sites of the AT1 receptor according to ARB, which produced olmesartan derivatives with different interactions and functions toward the AT1 receptor, as previously reported by Zhang et al., since the additional 4-hydroxybenzyl groups of R781253 and R794847 were predicted to extend to a sub-pocket on the bottom of the AT1 receptor ligand-binding pocket consisting of Leu^112 and Gln^257. In addition, since the biased ligand TRV027 induced changes near the NPxxY motif in TM domain 7 that are related to receptor activation, Tyr^292 and Asn^295 in the AT1 receptor were mutated.
The synthetic rat AT1 receptor gene, which was cloned in the shuttle expression vector pMT-2, was used for expression and mutagenesis, as described previously. COS7 cells (No. CRL-1651, ATCC, Manassas, VA, USA) were cultured in 10% fetal bovine serum (FBS) and penicillin- and streptomycin-supplemented Dulbecco’s modified Eagle’s essential medium (PS-DMEM) in 5% CO2 at 37 °C. In the experiments, cells were grown without a cell-growth supplement. To express the AT1 receptor protein, 10 µg of purified plasmid DNA per 10^7 cells was used in the transfection. Wild-type and mutated AT1 receptors were transiently transfected into cells using Lipofectamine 2000 liposomal reagent (Roche Applied Science, Penzberg, Germany). Cells were plated and grown and were 70–90% confluent at the time of transfection. We incubated plasmid DNA (10 µg)–lipid (10 µL) complexes for 5 min at room temperature and added and incubated the complexes with cells for 24 h. We then analyzed the parameters in transfected cells. Cell viability was >95% according to trypan blue exclusion analysis in the control experiments. Transfected cells that had been cultured for 48–72 h were harvested. Cell membranes were prepared using the nitrogen Parr bomb disruption or freeze–thaw methods.
The Kd (nM) values of receptor binding were determined with ^125I-[Sar^1, Ile^8]AngII-binding experiments under equilibrium conditions. Binding kinetics were determined following the methods described in the literature. We carried out binding by using ^125I-[Sar^1, Ile^8] AngII (2200 Ci/mmol) and an increasing concentration (10^−11–10^−5 M) of each unlabeled compound. Nonspecific binding of ^125I-[Sar^1, Ile^8] Ang II was determined in the presence of a high concentration (10^−6 M) of unlabeled [Sar^1, Ile^8]. Next, the incubation mixture was separated by vacuum filtration through Whatman GF/C glass filters (Disposable Filter Funnels Grade GF/C, GE Healthcare), and presoaked with 0.1% polyethylenimine. The filter was washed with 3 mL of ice-cold stop buffer (25 mM Tris–HCl, pH 7.4, 1 mM MgCl2). The radioactivity trapped on the filters was quantified using an automatic γ-counter. The percentage (%) of specific binding of ^125I-[Sar^1, Ile^8]Ang II was calculated using the following formula: 100 × (% total binding of ^125I-[Sar^1, Ile^8]Ang II—nonspecific binding of ^125I-[Sar^1, Ile^8]Ang II)/(% total binding of ^125I-[Sar^1, Ile^8]Ang II).
As for `CCCc1nc(C(C)(C)O)c(C(N)=O)n1Cc1ccc(-c2cc(Cc3ccc(O)cc3)ccc2-c2nnn[nH]2)cc1` [R794847], the equilibrium dissociation constant (Kd) is greater than 10000 nM.

For the compound `CCCc1nc(C(C)(C)O)c(C(N)=O)n1Cc1ccc(-c2ccccc2-c2nnn[nH]2)cc1` [R239470], the Kd stood at 69 ± 8 nM.

With `CCCc1nc(C(C)(C)O)c(C(=O)O)n1Cc1ccc(-c2ccccc2-c2nnn[nH]2)cc1` [Olmesartan, olmesartan], the Kd stood at 334 ± 105 nM.

For `CCCc1nc(C(C)(C)O)c(C(=O)O)n1Cc1ccc(-c2cc(Cc3ccc(O)cc3)ccc2-c2nnn[nH]2)cc1` [R781253], the dissociation constant (Kd) was greater than 10000 nM.
